In ChEMBL document CHEMBL1152477, “Evaluation of substrate and inhibitor properties of a novel MDR modulator H17 towards transmembrane efflux pumps” (Eur J Med Chem, 2009):

What was measured:
Rattus norvegicus [1] = species: Rattus norvegicus; assay: Inhibition of P-glycoprotein in White Wistar rat jejunum assessed as permeability at 30 uM after 30 mins by HPLC analysis; type: tissue-based
Rattus norvegicus [2] = species: Rattus norvegicus; assay: Inhibition of P-glycoprotein in White Wistar rat ileum assessed as permeability at 30 uM after 30 mins by HPLC analysis; type: tissue-based
Rattus norvegicus [3] = species: Rattus norvegicus; assay: Inhibition of P-glycoprotein in White Wistar rat colon assessed as permeability at 30 uM after 30 mins by HPLC analysis
[4] = biological target: T1, Multidrug resistance-associated protein 1 (Rattus norvegicus, UniProt Q8CG09); assay: Inhibition of MRP1/MRP2 in White Wistar rat jejunum assessed as increase in drug uptake at 1 mM after 30 mins by HPLC analysis; type: tissue-based; settings: 0.5 h, 1000 µM
T1 sequence (Q8CG09 whole entry): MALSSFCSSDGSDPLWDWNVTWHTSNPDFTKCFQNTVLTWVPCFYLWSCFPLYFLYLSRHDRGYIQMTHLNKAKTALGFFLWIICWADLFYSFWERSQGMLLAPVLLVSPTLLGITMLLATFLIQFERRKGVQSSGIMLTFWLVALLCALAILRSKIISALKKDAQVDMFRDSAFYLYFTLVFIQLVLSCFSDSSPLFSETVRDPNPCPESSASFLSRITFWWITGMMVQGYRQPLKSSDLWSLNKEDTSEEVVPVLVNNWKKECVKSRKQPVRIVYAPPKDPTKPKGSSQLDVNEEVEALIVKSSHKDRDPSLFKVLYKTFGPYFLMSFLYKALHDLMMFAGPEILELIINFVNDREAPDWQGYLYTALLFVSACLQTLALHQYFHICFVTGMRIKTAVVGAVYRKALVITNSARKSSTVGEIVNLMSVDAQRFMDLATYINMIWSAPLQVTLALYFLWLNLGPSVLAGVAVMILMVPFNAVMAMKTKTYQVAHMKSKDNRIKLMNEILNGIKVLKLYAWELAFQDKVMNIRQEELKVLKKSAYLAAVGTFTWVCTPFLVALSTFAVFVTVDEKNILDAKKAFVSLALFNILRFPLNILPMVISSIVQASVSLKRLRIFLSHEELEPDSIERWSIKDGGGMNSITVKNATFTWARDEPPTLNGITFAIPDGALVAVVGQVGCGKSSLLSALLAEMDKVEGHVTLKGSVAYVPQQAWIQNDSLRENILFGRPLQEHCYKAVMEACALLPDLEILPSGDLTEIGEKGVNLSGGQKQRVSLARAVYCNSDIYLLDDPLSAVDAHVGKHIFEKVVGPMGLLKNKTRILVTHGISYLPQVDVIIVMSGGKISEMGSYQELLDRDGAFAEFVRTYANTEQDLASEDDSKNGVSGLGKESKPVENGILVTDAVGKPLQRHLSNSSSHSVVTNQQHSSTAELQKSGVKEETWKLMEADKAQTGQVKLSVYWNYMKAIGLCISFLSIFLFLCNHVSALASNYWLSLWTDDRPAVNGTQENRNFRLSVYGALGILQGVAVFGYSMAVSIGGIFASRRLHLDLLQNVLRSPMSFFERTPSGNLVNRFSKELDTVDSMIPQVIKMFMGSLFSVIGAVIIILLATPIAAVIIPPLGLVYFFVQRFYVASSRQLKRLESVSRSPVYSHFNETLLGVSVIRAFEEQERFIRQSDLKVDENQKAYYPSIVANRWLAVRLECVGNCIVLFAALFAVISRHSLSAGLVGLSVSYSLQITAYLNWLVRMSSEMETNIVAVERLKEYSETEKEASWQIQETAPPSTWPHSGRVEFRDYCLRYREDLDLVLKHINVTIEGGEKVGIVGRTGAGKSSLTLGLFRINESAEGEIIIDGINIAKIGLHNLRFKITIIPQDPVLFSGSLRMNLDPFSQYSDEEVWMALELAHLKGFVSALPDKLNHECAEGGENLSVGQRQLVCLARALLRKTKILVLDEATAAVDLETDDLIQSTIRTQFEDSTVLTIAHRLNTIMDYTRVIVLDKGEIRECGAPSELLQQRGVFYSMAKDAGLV

[5] = biological target: T1, Multidrug resistance-associated protein 1; assay: Inhibition of MRP1/MRP2 in White Wistar rat ileum assessed as increase in drug uptake at 1 mM after 30 mins by HPLC analysis; type: tissue-based; settings: 0.5 h, 1000 µM
[6] = biological target: T1, Multidrug resistance-associated protein 1; assay: Inhibition of MRP1/MRP2 in White Wistar rat colon assessed as increase in drug uptake at 1 mM after 30 mins by HPLC analysis; settings: 0.5 h, 1000 µM

Compound	permeability (Rattus norvegicus [1])	permeability (Rattus norvegicus [2])	permeability (Rattus norvegicus [3])	Drug uptake [4]	Drug uptake [5]	Drug uptake [6]
OCC12C3C4C1N(Cc1ccccc1)C1(CO)C(CO)(C4c4ccccc4)C(N3Cc3ccccc3)C1(CO)C2c1ccccc1 (stereo unspecified)	2.36 ×10⁻⁴ cm/s	2.4 ×10⁻⁴ cm/s	2.05 ×10⁻⁴ cm/s	–	–	–
COc1ccc2c(c1)c(CC(=O)O)c(C)n2C(=O)c1ccc(Cl)cc1 [INDOMETHACIN]	–	–	–	24%	13%	13%
